Test results published in article PMC12249663, “Identification and Screening of Novel Antioxidant Peptides from Yak Skin and Their Protective Effect on H2O2-Induced HepG2 Cells Oxidation” (International Journal of Molecular Sciences, 2025).
Like-named read-outs stand apart in the source and are kept apart here.

Assays:
HepG2 cells = settings: 2 h, CCK-8, mean ± SD
Description: HepG2 cells were cultured in 96-well plates at a density of 5 × 10^4 cells/mL for 24 h. After the medium was removed, 100 µL of complete medium containing different concentrations of H2O2 (800, 1000, 1200, 1400, 1600 µM) was added and incubated for 2 h. After the medium was discarded, cell viability was determined using the CCK-8 assay to establish the optimal H2O2 concentration for inducing an oxidative stress model. The cells without H2O2 treatment were used as control group.

H2O2-induced HepG2 cells [1] = test: MDA content in H2O2-induced HepG2 cells (kit); format: cell-based; settings: peptide pretreatment 24 h, then 1.4 mM H2O2 2 h; cell lysate; mean ± SD; model group 10.31 ± 0.23
Description: (§1) After the medium was discarded, 100 μL peptides of different concentrations were added to the wells and cultured for an additional 24 h. After discarding the medium and then being washed, the cells were incubated with 100 μL of an appropriate concentration of H2O2. After incubation for 2 h, the supernatant was collected, and the content of IL-8 was determined strictly, according to the kit instructions. Afterwards, the cells were washed twice with PBS, and then the cell viability was measured. Alternatively, the cells were disrupted with 300 μL of cell lysate and centrifuged at 6000× g at 4 °C for 15 min. The supernatant was collected and stored at −80 °C. The protein concentration was determined using the Bio-Rad DC analysis with BSA as the standard curve. In addition, the contents of SOD, CAT, and MDA in cell lysates were determined in strict accordance with the kit instructions.

H2O2-induced HepG2 cells [2] = test: SOD activity in H2O2-induced HepG2 cells (kit); format: cell-based; settings: for activity of SOD compared with the model group: peptide pretreatment, H2O2-induced HepG2 cells, p < 0.05
Description: as §1

H2O2-induced HepG2 cells [3] = test: CAT activity in H2O2-induced HepG2 cells (kit); format: cell-based; settings: for activity of CAT compared with the model group: peptide pretreatment, H2O2-induced HepG2 cells, p < 0.05
Description: as §1

[4] = ABTS radical scavenging activity; format: biochemical; settings: 40 μL sample + 160 μL ABTS working solution, 10 min dark, room temperature, absorbance 734 nm; sample concentration not given; mean ± SD, at least three repeats
Description: Slightly modified according to the previous method, 7.4 mmol/L ABTS solution was mixed with the 2.6 mmol/L K2S2O8 solution in equal volume, and then was kept in the dark for 16 h. The ABTS working solution was obtained when the mixture was subsequently diluted with anhydrous ethanol to adjust the absorbance to a range of 0.70 ± 0.02 at 734 nm. Then, the sample solution of 40 μL was mixed with 160 μL ABTS working solution and reacted at room temperature for 10 min in the dark on 96 microporous plates. Meanwhile, the sample was replaced with distilled water as the blank. The absorbance was measured at 734 nm, and the ABTS radical scavenging rate of samples was calculated using the formula below.(2) ABTS radical scavenging rate(%)=[…], where A0 and A1 represented the absorbance values of the blank and sample groups.

[5] = DPPH radical scavenging activity; format: biochemical; settings: 100 μL sample + 100 μL 0.1 mmol/L DPPH in anhydrous ethanol, 30 min dark, room temperature, absorbance 517 nm; sample concentration not given; mean ± SD, at least three repeats
Description: Slightly modified according to the previous method, the 100 μL sample solution was mixed with 100 μL 0.1 mmol/L DPPH anhydrous ethanol solution and reacted in the dark at room temperature for 30 min. Then the absorbance was measured at 517 nm. The DPPH free radical scavenging rate of the sample was calculated by the formula below.(1) DPPH radical scavenging rate(%)=(1−A1−A2/A0)×100, where A1 represented the absorbance value the sample reaction with DPPH anhydrous ethanol solution; A2 represented the absorbance value of the sample’s reaction with anhydrous ethanol solution; A0 represented the absorbance of the reaction mixture solution without the sample.

[6] = Hydroxyl radical scavenging activity; format: biochemical; settings: salicylic acid / FeSO4 / H2O2 6.0 mmol/L, 37 °C, 0.5 h, absorbance 510 nm; sample concentration not given; mean ± SD, at least three repeats
Description: The hydroxyl radical scavenging activities of samples were performed as in the previous method with slight modifications. Briefly, 6.0 mmol/L salicylic acid solution and FeSO4 solution were prepared, and 0.5 mL of each solution was added into a reaction tube, followed by the addition of a 0.5 mL sample solution and a 0.5 mL H2O2 solution of 6.0 mmol/L. After mixing, the reaction was conducted in a 37 °C water bath for 0.5 h, and then the absorbance was measured at 510 nm. Meanwhile, the sample was replaced with distilled water and used as the blank group, and H2O2 was replaced with distilled water and used as the control group. The hydroxyl radical scavenging rate of the sample was calculated according to the formula below.(3) hydroxyl radical scavenging rate(%)=(1-A0−A1/A)×100, where A0, A1, and A represented the absorbance values of the sample group, blank group, and control group, respectively.

H2O2-induced HepG2 cells [7] = test: IL-8 content in H2O2-induced HepG2 cells (ELISA kit); format: cell-based; settings: peptide pretreatment 24 h, then 1.4 mM H2O2 2 h; supernatant; p < 0.05; model group 154.02 ± 2.80 pg/mL
Description: as §1

Row | Compound | cell viability (HepG2 cells; H2O2 0.8 µM) | cell survival rate (HepG2 cells; H2O2 1.4 mM) | cell viability (HepG2 cells; H2O2 1.6 mM) | MDA content (H2O2-induced HepG2 cells [1]) | activity of SOD in cells (H2O2-induced HepG2 cells [2]; peptide pretreatment 24 h, then 1.4 mM H2O2 2 h, cell lysate, mean ± SD, model group 6.17 ± 0.41, control 14.35 ± 0.06) | activity of SOD compared with the model group (H2O2-induced HepG2 cells [2]) | activity of CAT in cells (H2O2-induced HepG2 cells [3]; peptide pretreatment 24 h, then 1.4 mM H2O2 2 h, cell lysate, mean ± SD, model group 26.01 ± 1.78, control 60.80 ± 1.10) | activity of CAT compared with the model group (H2O2-induced HepG2 cells [3]) | ABTS radical scavenging rate [4] | DPPH radical scavenging rate [5] | hydroxyl radical scavenging rate [6] | intracellular IL-8 content compared with the model group (H2O2-induced HepG2 cells [7])
1 | OO [H2O2, hydrogen peroxide] | 91.77 ± 4.53% | 51.29 ± 3.06% | 37.01 ± 3.20% | – | – | – | – | – | – | – | – | –
2 | FGFDGDF [Phe-Gly-Phe-Asp-Gly-Asp-Phe, antioxidant peptide identified from yak skin hydrolysate YSP-I, synthesized] | – | – | – | 3.945 ± 0.21 nmol/mg prot | 11.83 ± 0.16 U/mg prot | significantly more improved | 47.49 ± 1.14 U/mg prot | significantly more improved | 19.15% ± 1.59% | 25.80% ± 1.82% | 44.44% ± 1.94% | significantly reduced
3 | GFDGD [Gly-Phe-Asp-Gly-Asp, antioxidant peptide identified from yak skin hydrolysate YSP-I, synthesized] | – | – | – | 5.55 ± 0.16 nmol/mg prot | – | significantly more improved | – | significantly more improved | – | – | 41.61% ± 1.73% | significantly reduced
4 | GHNGLDGL [Gly-His-Asn-Gly-Leu-Asp-Gly-Leu, antioxidant peptide identified from yak skin hydrolysate YSP-I, synthesized] | – | – | – | 4.65 ± 0.39 nmol/mg prot | – | significantly more improved | – | significantly more improved | – | – | – | significantly reduced
5 | GPAGPQGPR [Gly-Pro-Ala-Gly Pro-Gln-Gly-Pro-Arg, antioxidant peptide identified from yak skin hydrolysate YSP-I, synthesized] | – | – | – | 5.96 ± 0.30 nmol/mg prot | – | significantly more improved | – | significantly more improved | – | – | – | significantly reduced
6 | LMGPR [Leu-Met-Gly-Pro-Arg, antioxidant peptide identified from yak skin hydrolysate YSP-I, synthesized] | – | – | – | 5.91 ± 0.27 nmol/mg prot | – | significantly more improved | – | significantly more improved | – | 23.56% ± 2.68% | – | significantly reduced
